# Source: patent US11339446B2, “Biomarker for measurement of response and prognosis of triple-negative breast cancer to anticancer agent” (SEOUL NATIONAL UNIVERSITY R&DB FOUNDATION, priority 2017, dated 2022)
# Tests used:
# Type in all cases: cell-based
# HCC38 cell line = assay: CellTiter-Glo cell viability assay after docetaxel, HCC38
# Procedure: (§1) MDA-MB-231, DU4475, MDA-MB-436, and MDA-MB-157 cell lines were purchased from the ATCC. MDA-MB-468, HCC1937, HS578T, and HCC38 cell lines were obtained from the Korea Cell Bank. MDA-MB-157 cell line was cultured in a Leibovitz's L15 culture medium supplemented with 10% fetal bovine serum. The MDA-MB-436 cell line was cultured in a Leibovitz's L15 culture medium supplemented with 10% fetal bovine serum and 0.026 units/ml units insulin. The MDA-MB-231 cell line, the MDA-MB-468 cell line, and the HS578T cell line were each cultured in a DMEM culture medium supplemented with 10% fetal bovine serum in 5% CO2. The remaining cell lines were each cultured in a RPMI-1640 culture medium supplemented with 10% fetal bovine serum in 5% CO2.
# (§2) In the present disclosure, docetaxel was used to find genes related to resistance to taxane-based neoadjuvant chemotherapy (NAC). Docetaxel was purchased at Sigma-Aldrich, and then, dissolved according to the instructions of the manufacturer. The cell lines were collected using trypsin treatment, counted with a hemocytometer, and plated for 14 hours at a density of 3,000 cells/well in a 96-well plate. Afterwards, the solvent was replaced with docetaxel at different concentrations (e.g., 0 nM, 0.01 nM, 0.1 nM, 1 nM, 10 nM, and 100 nM), 48 hours after exposure to docetaxel, cell viability experiments were performed using the CellTiter-Glo Luminescent Cell Viability Assay according to the protocol of the manufacture. The CellTiter-Glo Luminescent Cell Viability Assay is a method of determining the number of cells present in a culture medium depending on the amount of ATP in a culture medium. In summary, the same amount of 100 μl of CellTiter-Glo assay reagents were added to each well, incubated for 10 minutes at room temperature, and then, measured according to the luminometry. The experiment was repeated twice, and the 50% inhibitory concentration of each cell line was measured by non-linear regression analysis.
# MDA-MB-468 cell line = assay: CellTiter-Glo cell viability assay after docetaxel, MDA-MB-468
# Procedure: as §1, §2
# HS578T cell line = assay: CellTiter-Glo cell viability assay after docetaxel, HS578T
# Procedure: as §1, §2
# MDA-MB-436 cell line = assay: CellTiter-Glo cell viability assay after docetaxel, MDA-MB-436
# Procedure: as §1, §2
# DU4475 cell line = assay: CellTiter-Glo cell viability assay after docetaxel, DU4475
# Procedure: as §1, §2
# HCC1937 cell line = assay: CellTiter-Glo cell viability assay after docetaxel, HCC1937
# Procedure: as §1, §2
# MDA-MB-157 cell line = assay: CellTiter-Glo cell viability assay after docetaxel, MDA-MB-157; conditions: MDA-MB-15T
# Procedure: as §1, §2
# MDA-MB-231 cell line = assay: CellTiter-Glo cell viability assay after docetaxel, MDA-MB-231
# Procedure: as §1, §2
compound,measurement,setting,value
"CC(=O)O[C@@]12CO[C@@H]1C[C@H](O)[C@@]1(C)C(=O)[C@H](O)C3=C(C)[C@@H](OC(=O)[C@H](O)[C@@H](NC(=O)OC(C)(C)C)c4ccccc4)C[C@@](O)([C@@H](OC(=O)c4ccccc4)[C@H]21)C3(C)C [Docetaxel, docetaxel]",Survival fraction,"HCC38 cell line; HCC38, 50 nM",0.57
same,Survival fraction,"HCC38 cell line; HCC38, 100 nM",0.53
same,IC50,"HCC38 cell line; Homo sapiens, HCC38, 48 hours exposure",> 100 nM
same,IC50,"MDA-MB-468 cell line; Homo sapiens, MDA-MB-468, 48 hours exposure",1.81 nM
same,Survival fraction,"MDA-MB-468 cell line; MDA-MB-468, 50 nM",0.27
same,Survival fraction,"MDA-MB-468 cell line; MDA-MB-468, 100 nM",0.26
same,Survival fraction,HS578T cell line; 50 nM,0.32
same,Survival fraction,HS578T cell line; 100 nM,0.29
same,IC50,"HS578T cell line; Homo sapiens, Hs-578T, 48 hours exposure",11.1 nM
same,IC50,"MDA-MB-436 cell line; Homo sapiens, MDA-MB-436, 48 hours exposure",> 100 nM
same,Survival fraction,"MDA-MB-436 cell line; MDA-MB-436, 50 nM",0.81
same,Survival fraction,"MDA-MB-436 cell line; MDA-MB-436, 100 nM",0.75
same,Survival fraction,"DU4475 cell line; DU4475, 50 nM",0.37
same,Survival fraction,"DU4475 cell line; DU4475, 100 nM",0.27
same,IC50,"DU4475 cell line; Homo sapiens, DU-4475, DU4475, 48 hours exposure",11.6 nM
same,Survival fraction,"HCC1937 cell line; HCC1937, 50 nM",0.76
same,Survival fraction,"HCC1937 cell line; HCC1937, 100 nM",0.70
same,IC50,"HCC1937 cell line; Homo sapiens, HCC1937, 48 hours exposure",> 100 nM
same,IC50,"MDA-MB-157 cell line; Homo sapiens, MDA-MB-157, 48 hours exposure",> 100 nM
same,Survival fraction,MDA-MB-157 cell line; 50 nM,0.65
same,Survival fraction,MDA-MB-157 cell line; 100 nM,0.65
same,IC50,"MDA-MB-231 cell line; Homo sapiens, MDA-MB-231, 48 hours exposure",29.1 nM
same,Survival fraction,"MDA-MB-231 cell line; MDA-MB-231, 50 nM",0.47
same,Survival fraction,"MDA-MB-231 cell line; MDA-MB-231, 100 nM",0.35
